This note sets out measurements from a melting point compilation (Tetko et al.; mined from patent text by program, amines drawn as free bases though some values may be those of a salt).

What is called melting point is the temperature of the solid-liquid transition. Turning to `O=c1[nH]c2c(cc1-c1nnc(C3CC3)o1)CN(Cc1ccccc1)CC2`, the melting point was in the range of 212 to 214 °C.

Consider `CCOC(=O)c1cn(CC(I)=C(I)I)c(Cl)c1Cl`, for which the melting point is 117 to 119 °C. Regarding `COc1cccc(-c2cc3nccnc3[nH]2)c1`, the melting point is 194 to 196 °C. `CCCCC(=Nc1sccc1C(=O)NCCC)OC` had a melting point of 68 to 70 °C. The value for `Cc1nc2ccccn2c(=O)c1CCN1CCC(C(=O)c2ccccc2)CC1` was 122 °C. In the case of `CCC12CCC3=C(CCc4cc(OC(C)=O)ccc43)C1CCC2=O` (stereo not given), the melting point lay within 132 to 134 °C. `CCOc1ccc(C(=O)C2=C(O)C(=O)N(c3ccc(C)nn3)C2c2ccc(OC(F)(F)F)cc2)cc1` (stereo not given) returned a melting point of 255 to 257 °C. Compound `C=CCOC(=O)c1c(Cl)c(OC)cc(O[Si](C)(C)C(C)(C)C(C)C)c1C=O` had a melting point of 97 °C. Take `Cc1ccc(-c2ccc3c(c2)C=C(C(=O)Nc2ccc(CSC4CCCCC4)cc2)CCO3)cc1`: the melting point fell in the range of 161 to 162 °C.

Turning to `COc1ccc(C2=NNC(=O)CS2)c(OC)c1`, the melting point fell in the range of 162 to 164 °C. Consider `CCCCCC(C)C(C)c1cc(O)c2c(c1)OC(C)(C)C1=C2CN(CC(=O)NC(N)=O)CC1` (stereo not given), for which the melting point is 131 to 133 °C. Take `COC(=O)c1cn2c3c(c(F)c(F)cc3c1=O)CC(C)N2C` (stereo not given): the melting point was in the range of 184 to 185 °C. Turning to `CN(C)C(=O)c1cc(O)ccc1O`, the melting point was 144 to 146 °C. `O=C(COc1ccc(Cl)cc1Cl)OCCOC(=O)c1cc(Oc2ccc(C(F)(F)F)cc2Cl)ccc1[N+](=O)[O-]` had a melting point of 111 to 118 °C. In the case of `COC(=O)C(Cc1c[nH]c2ccccc12)NCOC(C)[Si](C)(C)C` (racemic), the melting point was in the range of 113 to 115 °C. Turning to `COc1ccc(-c2nnc(Cl)cc2C)cc1`, the melting point came out at 132 °C. The compound `COc1ccn2nc(-c3ccccc3F)c(-c3ccc(=O)n(C)n3)c2c1` registered a melting point of 220 to 222 °C. `CC1Oc2c(F)cc(CN3CCN(c4ccc(C(=O)NC5CC5)cc4)CC3)cc2NC1=O` (stereo not given) came in with a melting point of 108 to 110 °C. For `CC(C)(Cl)C(CO)=NO`, the melting point lay in the range of 114 to 115 °C. `CCN(CC1CCCC1)c1nc2c(cc1CN(Cc1cc(C(F)(F)F)cc(C(F)(F)F)c1)C(N)=O)c(C)nn2C` registered a melting point of 139 °C.

With `CC(N1C(=O)C(=O)N(c2ccc(C#N)cc2)C1=S)C(C)(C)C` (stereo not given), the melting point turned out to be 198 °C.

With `O=C(c1ccc(Cl)cc1)c1cccc(Br)n1`, the melting point lay in the range of 83.5 to 84 °C. On to `CN(CCN1CCOCC1)C(=O)c1ccc(COc2cccc3c2CN(C2CCC(=O)NC2=O)C3=O)cc1` (stereo not given), for which the melting point fell in the range of 120 to 122 °C. Regarding `O=C1Cc2cc3ccccc3cc2C(c2ccccc2Cl)N1` (stereo not given), the melting point lay in the range of 234 to 237 °C.

Consider `Cc1cc2c(cc1C(=O)CBr)C(C)(C)CC(C)C2(C)C` (stereo not given), for which the melting point came out at 68 °C. The value for `O=c1oc2ccccc2c(OCCN2CCOCC2)c1-c1ccccc1` was 97 °C. `O=C(NCCCCCCCCNC(=O)c1ccc(OC(F)(F)F)cc1)c1ccc(OC(F)(F)F)cc1` had a melting point of 164 to 165 °C. Compound `CCc1c(O)cc(=O)[nH]c1C` yielded a melting point of 360 °C. `CC(C)(C)OC(=O)N[C@H]1CC[C@H](CCN2CCN(c3cccc4c3CCC4)CC2)CC1` came in with a melting point of 115 to 118 °C. The value for `O=C(Nc1nnn[nH]1)c1csc(-c2ncccc2O)n1` was more than 300 °C; that for `CCOC(=O)CC[C@H](NC(=O)c1ccc(NCCCc2c(N(C(C)=O)C(C)=O)nc(NC(C)=O)[nH]c2=O)c(OC)c1)C(=O)OCC` was 73 to 84 °C.

For the compound `COCCNC(=O)c1c(O)c2cc(Cl)ccc2n(C)c1=N`, the melting point was 209 to 211 °C. For `COc1ccccc1[C@@]1(O)[C@H](O)CC(c2ccccc2)(c2ccccc2)[C@@H]2CN(C(=O)Cc3c[nH]c4ccc(F)cc34)C[C@@H]21` (racemic), the melting point was found to be 248 °C. Next, `O=C(NNS(=O)(=O)c1ccccc1)c1ccccc1Oc1ccccc1`: 149 to 150 °C. `Cc1cccc(C)c1NC(=O)NO` yielded a melting point of 192 to 193 °C.

`CS(=O)(=O)C(=C1CN(C(c2ccccc2)c2ccccc2)C1)c1cc(Cl)ccc1Cl` gave a melting point of 202 °C. The value for `COc1cc(C=CC(=O)Nc2cnc3c(C)cc(C)cc3c2-c2ccc(F)cc2)cc(OC)c1OC(C)=O` was 260 to 261 °C; that for `CC[Si](C)(C)NC(=O)c1ccc(N)cc1` was 126 to 127 °C; that for `COCCNC(=O)c1ccc(C(=O)NS(=O)(=O)c2ccc(CCNC(=O)CCc3ccc(OC)c(OC)c3)cc2)cn1` was 87 to 89 °C. For the compound `CCCCc1cnc(SC)[nH]c1=O`, the melting point was in the range of 138 to 140 °C. Compound `CCCOC1(C=CCCCCC(=O)O)C=CC=CC1` (stereo not given) gave a melting point of 52 to 53 °C.

In turn, `Cc1nnc(F)c(-c2c(F)cc(F)cc2F)c1-c1ccc(Cl)cc1` gave a melting point of 114 to 115 °C. `CC1=C(c2ccc(Cl)cc2)n2ncc3c(=O)[nH]c(=S)n(c32)C1` gave a melting point of 283 to 285 °C. `COc1ccc(S(=O)(=O)Nc2ccccc2/C=C/c2ccncc2)cc1` showed a melting point of 207 to 209 °C. The value for `O=[N+]([O-])c1ccc(S(=O)(=O)Nc2cccc3c(Cl)c[nH]c23)cc1` was 200 °C.

Turning to `O=C(OCc1ccccc1)c1n[nH]c2c(=O)[nH]c3cc(Cl)ccc3c(=O)c12`, the melting point turned out to be 254 °C. Next, `COc1nc(NNc2nc(OC)nc(OC)n2)nc(OC)n1`: 222 to 224 °C; `Cc1cc(C)c(/C=C/[C@@H](O)C[C@@H](O)CC(=O)OCOC(=O)C(C)(C)C)c(-c2ccc(F)c(C)c2)c1`: 97 to 98 °C; `NC(=N[N+](=O)[O-])N1CCN(Cc2ccc(Cl)nc2)C1`: 170 to 174 °C. `CCOC(=O)c1cnc2c(cnn2CC)c1O` gave a melting point of 85 to 87 °C. In turn, `COc1ccc(OC)c(C2Nc3ccccc3S2)c1` (stereo not given) came in with a melting point of 96 to 99 °C.

As for `COc1cc2c(cc1OC)C(C)(CC(=O)O)OCC2` (stereo not given), the melting point was in the range of 89 to 92 °C. Next, `CCOC(=O)CCn1c(-c2ccc(Cl)cc2)nc2cccnc21`: 57 to 59 °C; `COc1ccc(C(=O)Nc2ccccc2)cc1Nc1cccc([N+](=O)[O-])c1`: 220 to 221 °C. The value for `Cc1cc(C)n(C(=O)CNS(=O)(=O)c2ccc(C3CCCCC3)cc2)n1` was 138 °C.

Compound `C=C(C)C(=O)Nc1cccc(OC(=O)NC(C)(C)CC(C)(C)C)c1` came in with a melting point of 118 to 120 °C. `Cc1cccc(N(CCC(=O)O)Cc2ccc3nc(N)n(Cc4nc(C)ccc4O)c3c2)c1` displayed a melting point of 165 °C. In the case of `Cc1nc(N(C)c2ccccc2)n2ncc(C(=O)c3ccccc3)c2n1`, the melting point was 121 °C.

The compound `NC(=O)c1cccc2c1OC(CN1CC=C(c3c[nH]c4ccc(F)cc34)CC1)CO2` (stereo not given) registered a melting point of 195 to 197 °C. The value for `CC(C)(C)[Si](C)(C)O[Si](C)(C)C(C)(C)C` was 94 to 95 °C; that for `COc1ccc(S(=O)(=O)Nc2cccnc2Nc2ccncc2)cc1` was 172 to 173 °C; that for `N#Cc1cccc(NCCC(=O)O)c1` was 119 °C. Next, `COc1cc(Nc2nccc(-c3ccc(CO)cc3)n2)cc(OC)c1OC`: 171 to 172 °C. In the case of `CC(=O)n1cc(C2=CCN(C)CC2)c2cc(F)ccc21`, the melting point fell in the range of 126 to 128 °C. Consider `COc1cc(O)c([N+](=O)[O-])cc1C(F)(F)F`, for which the melting point is 77 to 78 °C. For the compound `OCCC1(c2ccc(Cl)c(Cl)c2)CCCNC1` (stereo not given), the melting point is 122 °C. `COC(=O)COc1ccc(-c2cccc3sc4ccccc4c23)cc1`: the melting point lay within 148 to 150 °C. The compound `CCOC(=O)c1cc2ccc(CBr)cc2o1` came in with a melting point of 95 to 102 °C. In turn, `CC(=O)NC1(C)Cc2ccccc2C(C)c2ccccc2C1` (stereo not given) yielded a melting point of 185 to 224 °C. Next, `O=C(Oc1ccccc1)N1CCC2(CC1)SC(c1ccccc1F)c1ccccc12` (stereo not given): 122 to 123 °C; `Nc1nc2ccc(Cc3ccc(F)cc3)cc2s1`: 162 to 164 °C. Consider `CC1CC2=CC(=O)CCC2(C)C2C(=O)CC3(C)C(=O)CCC3C12` (stereo not given), for which the melting point was in the range of 235 to 237 °C.

With `COc1ccc2ccc(=O)[nH]c2c1`, the melting point is 190 °C. Next, `c1ccc(OCCSCc2nnc(-c3ccc(OCCCN4CCCCC4)cc3)o2)cc1`: 65 °C; `O=C(C=Cc1cccc(Br)c1)Nc1ccc(CN2CCCCC2)cc1`: 144 to 145 °C; `O=C1CCCCN1CCc1c[nH]c2ccc(Cl)cc12`: 155 °C. The compound `CCc1noc(C)c1-c1[nH]c2ccccc2c1CCCN(C)C` registered a melting point of 131 to 133 °C. The value for `O=C(O)c1ccc(C(=O)C=Cc2ccccc2)cc1` was 217 to 220 °C; that for `O=c1[nH]nc2c3c(cccc13)N=C(CN1CCCN(Cc3ccc(F)cc3)CC1)N2` was 163 to 165 °C; that for `O=c1[nH]c2cc(C(F)(F)F)c(-n3ccnc3)cc2n2c(=S)[nH]nc12` was more than 300 °C.

As to `COC(=O)C1C(c2ccc(Br)cc2)CC2CCC1N2C` (stereo not given), the melting point was 114 to 116 °C. Compound `COC(=O)C(=O)c1ccc(OCC#Cc2ccccc2)cc1` had a melting point of 57 to 59 °C. Next, `Cc1nn2c(-c3cccnc3)ccnc2c1C#N`: 245 to 246 °C. The value for `CN(C)c1ccc2c(c1Br)C(=O)C1(CC1)O2` was 79 to 81 °C; that for `CSc1ccc(CSc2nnc(-c3ccc4ncsc4c3)o2)cc1C(F)(F)F` was 122 to 123 °C. Compound `CN1CCN(c2ccc3ncnc(N4CCc5ccc(Cl)cc54)c3c2)CC1` had a melting point of 289 to 290 °C. The compound `CCCCCN1C(=O)C(O)(c2cc3c(cc2O)OCO3)c2cnccc21` (stereo not given) showed a melting point of 193 to 195 °C. The value for `CC1CN(c2ccc(Cl)cc2)N=C1NC(=O)C(F)(F)F` (stereo not given) was 181 to 183 °C; that for `CCOC(=O)c1cnc(Cl)c(N)c1NC` was 50 to 52 °C. `COc1ccc(S(=O)(=O)C2(C(=O)O)CCN(Cc3ccc(-c4cccs4)cc3)CC2)cc1` registered a melting point of 235 °C.
